Data from paper PMC6718442, “11β-Hydroxysteroid dehydrogenases control access of 7β,27-dihydroxycholesterol to retinoid-related orphan receptor γ” (Journal of Lipid Research, 2019).

Columns and labels:
[1] = target: T1, human 11β-HSD1 (Homo sapiens, UniProt P28845); test: 11β-HSD1 enzyme kinetics (apparent KM and Vmax) in microsomes; assay type: biochemical
T1 construct: expressed in transfected cells
Description: Microsomes were prepared as described earlier with minor modifications ([38]). Briefly, HEK-293 cells stably expressing human 11β-HSD1 and H6PDH were cultured until they reached confluence. Then, they were washed with ice-cold PBS and resuspended to a final concentration of ∼2 × 10^7 cells/ml in ice-cold buffer A [50 mM Tris (pH 7.5), 1 mM EDTA, 100 mM NaCl]. Typically, 6 ml of this suspension were prepared, corresponding to 1.2 × 10^8 cells. Following homogenization with 20 strokes in a glass potter on ice, the preparation was sonicated and centrifuged (9.000 g, 4°C for 30 min). The supernatant was removed and subjected to ultracentrifugation at 105,000 g, 4°C for 70 min. The obtained pellet was resuspended in buffer B [20 mM Tris (pH 7.5), 1 mM EDTA, 10% glycerol] and the ultracentrifugation step repeated. The microsomal fraction was again resuspended in buffer B and the total protein concentration determined using BCA assay ([39]). The microsomes were immediately frozen on dry ice and stored at −80°C.
Microsomes (1–20 μg) expressing 11β-HSD1 and H6PDH were incubated for 20 min with 1 mM of NADPH, 2 mM of glucose-6-phosphate, 0.1 units of glucose-6-phosphate dehydrogenase (from Saccharomyces cerevisiae), and different concentrations (62.5–2,000 nM) of 7k27OHC, adapted to a total assay volume of 50 μl with TS2 buffer [100 mM NaCl, 1 mM EGTA, 1 mM EDTA, 1 mM MgCl2, 250 mM sucrose, 20 mM Tris/HCl (pH 7.4)]. Oxysterols were extracted by mixing the samples with ice-cold ethyl acetate containing 100 nM deuterium-labeled 7β27OHC as internal standard and 1.5% (v/v) BHT/TPP solution as antioxidant. […] After reconstitution in 50 μl of methanol:ultra-pure water (1:1, v/v), the samples were centrifuged (4°C, 16,000 g for 10 min) and analyzed by UHPLC-MS/MS.
The substrate conversion was kept below 30% in all reactions. Apparent kinetic parameters (KM and Vmax) were determined by nonlinear regression and under the assumption of Michaelis-Menten kinetics. […]

[2] = target: T2, mineralocorticoid receptor (MR) (Homo sapiens, UniProt P80365); test: Mineralocorticoid receptor reporter gene assay in HEK-293 cells stably expressing 11β-HSD2; assay type: cell-based; details: without cortisol, data not shown
T2 sequence (P80365 1-405): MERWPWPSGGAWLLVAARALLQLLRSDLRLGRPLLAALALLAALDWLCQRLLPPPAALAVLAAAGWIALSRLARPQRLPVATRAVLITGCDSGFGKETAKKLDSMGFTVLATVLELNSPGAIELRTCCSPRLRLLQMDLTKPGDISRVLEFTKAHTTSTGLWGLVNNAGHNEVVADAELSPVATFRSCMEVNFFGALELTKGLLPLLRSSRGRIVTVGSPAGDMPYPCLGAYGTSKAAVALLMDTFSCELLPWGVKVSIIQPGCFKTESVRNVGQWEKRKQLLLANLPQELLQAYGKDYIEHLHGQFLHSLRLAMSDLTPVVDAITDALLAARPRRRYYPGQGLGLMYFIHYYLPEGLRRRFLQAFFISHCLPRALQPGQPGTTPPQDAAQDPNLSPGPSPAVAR
T2 sequence (P08235 1-984 partner): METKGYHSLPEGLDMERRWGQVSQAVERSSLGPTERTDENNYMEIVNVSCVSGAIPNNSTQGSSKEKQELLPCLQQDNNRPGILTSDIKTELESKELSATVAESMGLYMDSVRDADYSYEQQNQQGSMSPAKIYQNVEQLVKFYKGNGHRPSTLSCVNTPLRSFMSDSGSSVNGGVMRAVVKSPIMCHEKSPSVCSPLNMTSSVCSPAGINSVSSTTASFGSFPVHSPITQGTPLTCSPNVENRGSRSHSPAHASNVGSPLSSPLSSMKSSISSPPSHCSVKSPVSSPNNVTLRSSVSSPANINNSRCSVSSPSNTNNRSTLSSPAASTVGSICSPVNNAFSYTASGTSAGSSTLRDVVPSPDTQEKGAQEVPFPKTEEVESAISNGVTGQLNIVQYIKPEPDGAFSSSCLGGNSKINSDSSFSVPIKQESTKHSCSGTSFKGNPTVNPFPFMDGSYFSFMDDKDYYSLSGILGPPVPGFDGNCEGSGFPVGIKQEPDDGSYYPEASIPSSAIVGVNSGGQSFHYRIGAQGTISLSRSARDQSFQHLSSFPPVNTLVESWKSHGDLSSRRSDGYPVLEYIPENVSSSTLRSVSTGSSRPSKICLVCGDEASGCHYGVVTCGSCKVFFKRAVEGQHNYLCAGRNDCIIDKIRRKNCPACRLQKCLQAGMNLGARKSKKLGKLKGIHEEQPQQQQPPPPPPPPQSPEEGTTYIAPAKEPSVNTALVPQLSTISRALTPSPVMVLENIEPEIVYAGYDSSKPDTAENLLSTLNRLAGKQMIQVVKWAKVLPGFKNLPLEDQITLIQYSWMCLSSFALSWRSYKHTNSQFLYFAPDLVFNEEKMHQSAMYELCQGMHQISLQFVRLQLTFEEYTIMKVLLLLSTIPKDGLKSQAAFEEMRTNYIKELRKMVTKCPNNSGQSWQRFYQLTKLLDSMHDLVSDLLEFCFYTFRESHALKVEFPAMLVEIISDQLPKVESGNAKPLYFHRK
Description: Then, the cells were transiently transfected with the mineralocorticoid receptor (MR) (300 ng/well), a [NT] luciferase reporter (450 ng/well), and a pCMV-lacZ β-galactosidase transfection control (25 ng/well) using the calcium phosphate precipitation method. At 6 h post-transfection, the cells were washed with DMEM and incubated for another 18 h before replacing the medium with cDMEM. The cells were cultured for another 2 h at 37°C. […] The cells were lysed with Tropix lysis solution (Applied Biosystems, Foster City, CA) containing 0.5 mM of dithiothreitol and frozen at -80°C for at least 20 min.

[3] = target: T3, mouse 11β-hsd1 (Mus musculus, UniProt P50172); test: Conversion of 7k27OHC by mouse 11β-hsd1 (data not shown)
T3 construct: expressed in transfected cells; host or cells: HEK-293
T3 sequence (P50172 whole entry): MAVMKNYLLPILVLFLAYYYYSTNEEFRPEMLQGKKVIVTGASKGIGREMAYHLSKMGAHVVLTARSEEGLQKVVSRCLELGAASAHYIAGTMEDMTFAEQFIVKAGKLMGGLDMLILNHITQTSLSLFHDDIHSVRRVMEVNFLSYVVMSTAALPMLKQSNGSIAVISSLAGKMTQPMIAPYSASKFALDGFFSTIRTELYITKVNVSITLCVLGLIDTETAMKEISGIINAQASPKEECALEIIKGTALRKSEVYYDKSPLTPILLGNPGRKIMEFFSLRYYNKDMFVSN

[4] = target: T4, 11β-HSD2 (Homo sapiens, UniProt P80365); test: 11β-HSD2 enzyme kinetics (apparent KM and Vmax) in HEK-293 cell lysate; assay type: biochemical
T4 construct: expressed in transfected cells
T4 sequence (P80365 1-405): T2 sequence (P80365 1-405)
Description: For 11β-HSD2 activity measurements, 0.8 μg of HEK-293 cell lysate stably expressing 11β-HSD2 was incubated with different concentrations (50–800 nM) of 7β27OHC and 500 μM of NAD^+ for 10–30 min. Oxysterols were extracted as described in the 11β-HSD-dependent metabolism of 7-oxygenated 27OHCs in intact cells section.
The substrate conversion was kept below 30% in all reactions. Apparent kinetic parameters (KM and Vmax) were determined by nonlinear regression and under the assumption of Michaelis-Menten kinetics. Data (mean ± SD) were obtained from three independent experiments.

[5] = oxoreduction of substrate by 11β-HSD1, microsomes
[6] = oxidation of substrate by 11β-HSD2, cell lysate

T1 sequence (P28845 whole entry): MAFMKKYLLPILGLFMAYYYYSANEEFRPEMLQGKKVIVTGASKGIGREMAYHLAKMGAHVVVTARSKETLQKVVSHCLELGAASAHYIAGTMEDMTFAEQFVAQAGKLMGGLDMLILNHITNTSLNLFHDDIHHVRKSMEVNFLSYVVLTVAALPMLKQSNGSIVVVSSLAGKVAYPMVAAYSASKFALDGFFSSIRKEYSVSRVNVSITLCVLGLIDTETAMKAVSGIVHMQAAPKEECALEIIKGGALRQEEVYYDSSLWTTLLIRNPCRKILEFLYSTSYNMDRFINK

| SMILES | KMapp [1, 5] [nM] | Vmax app [1, 5] | Affinity of 11β-HSD1, times higher than for other endogenous substrates ([1]; versus cortisone, 11-DHC, 7kC, 7oxoLCA) | Stimulation of MR activity by the substance itself (in words) [2] | Conversion by mouse 11β-hsd1 (in words) [3] | KMapp [4, 6] [nM] | Vmax app [4, 6] | Substrate affinity of 11β-HSD2, times higher than for cortisol ([4]; versus cortisol KMapp ∼200 nM) [times] |
| --- | --- | --- | --- | --- | --- | --- | --- | --- |
| CC(CO)CCC[C@@H](C)[C@H]1CC[C@H]2[C@@H]3C(=O)C=C4C[C@@H](O)CC[C@]4(C)[C@H]3CC[C@]12C (stereo partly drawn) [7k27OHC, 7-keto,27-hydroxycholesterol] | 39 ± 12 | 4.3 ± 0.2 nmol·h^−1·mg total protein^−1 | 6-25 times | neither 7β27OHC nor 7k27OHC was able to stimulate MR activity by itself | exclusive conversion of 7k27OHC to 7β27OHC without the formation 7α27OHC |  |  |  |
| CC(CO)CCC[C@@H](C)[C@H]1CC[C@H]2[C@@H]3[C@@H](O)C=C4C[C@@H](O)CC[C@]4(C)[C@H]3CC[C@]12C (stereo partly drawn) [7β27OHC, 7β,27-dihydroxycholesterol] |  |  |  | neither 7β27OHC nor 7k27OHC was able to stimulate MR activity by itself |  | 56 ± 11 | 10 ± 0.4 nmol·h^−1·mg total protein^−1 | ~4 |
